Source: PMC3945637 (Frontiers in Pharmacology, 2014)
“And” between values parts separate entries of the source, which are not always exact repeats. Equal entries are not always repeated. Where two headings read alike, the source gives them in different places. Peptide text beside a SMILES is read from it.

What was measured:
[1] = molecular target: T1, rabbit B2R-green fluorescent protein (B2R-GFP) (Oryctolagus cuniculus, UniProt Q28642); assay: [3H]BK binding competition to B2R-GFP stably expressed in intact HEK 293 cells; conditions: for IC50 for B2R-GFP relative to unlabeled BK (fold greater IC50 / lower affinity): [3H]BK binding competition, vs BK; for [3H]BK binding to B2R-GFP log(IC50) ± SE: log of IC50, 3 nM [3H]BK, 0 °C, with peptidase inhibitors incl. captopril, HEK 293 cells
T1 construct: expressed in transfected cells
T1 sequence (Q28642 1-367): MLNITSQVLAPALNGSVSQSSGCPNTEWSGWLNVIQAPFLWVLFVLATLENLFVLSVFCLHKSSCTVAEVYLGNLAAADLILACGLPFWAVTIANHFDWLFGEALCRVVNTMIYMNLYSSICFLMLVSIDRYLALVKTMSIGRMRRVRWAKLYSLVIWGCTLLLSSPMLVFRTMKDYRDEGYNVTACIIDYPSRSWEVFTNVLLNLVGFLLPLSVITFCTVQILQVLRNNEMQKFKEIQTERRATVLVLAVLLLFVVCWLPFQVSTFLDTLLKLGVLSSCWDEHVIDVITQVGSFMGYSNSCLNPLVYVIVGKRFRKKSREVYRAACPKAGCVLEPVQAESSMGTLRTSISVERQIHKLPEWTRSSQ
Procedure: (§1) Affinity for the B2R was evaluated using a radioligand binding competition assay performed at 0 °C in the presence of peptidase inhibitors that included captopril ([Houle et al., 2000]). […] Other HEK 293a cells that transiently expressed human recombinant ACE were used to perform a [^3H]enalaprilat binding assay as described ([Koumbadinga et al., 2010]; the peACE vector was a gift from Prof. P. Corvol, Paris, France).
(§2) Results are presented as mean ± SEM. Radioligand binding data were fitted by non-linear regression to a one-site competition equation using a least-square method (Prism 4.0, GraphPad Software Inc., San Diego, CA, USA) and IC50 values calculated from this procedure. The same computer program was used to draw concentration-effect curves (least square fitting of sigmoidal dose-response equation with variable slope) and to derive contractile EC50 values. The qualitative effect of treatments on the distribution of the B2R-GFP fluorescent protein (either located at the plasma membrane or submitted to internalization) was evaluated for each HEK 293 cell in large microphotographic records and proportion of affected cells were compared using the χ^2 statistics to determine drug effect on the subcellular receptor distribution.

[2] = molecular target: T2, BK B2R (human umbilical vein rings) (Homo sapiens, UniProt P30411); assay: Human isolated umbilical vein contractility assay; assay type: cell-based; conditions: for +Peptidase inhibitor log(EC50) ± SE / Control (DMSO vehicle) log(EC50) ± SE: log of contractile EC50; for Control (DMSO vehicle) log(EC50) ± SE: no peptidase inhibitor, paired tissues; for reduction of contractile potency by Plummer's inhibitor: Plummer's inhibitor vs control tissues; for decrease of apparent contractile potency by ACE blockade: enalaprilat 1 μM vs paired control tissues; for fold less potent than BK as contractile agent: control conditions, vs BK
T2 construct: from tissue; host or cells: human umbilical vein rings
T2 sequence (P30411 1-391): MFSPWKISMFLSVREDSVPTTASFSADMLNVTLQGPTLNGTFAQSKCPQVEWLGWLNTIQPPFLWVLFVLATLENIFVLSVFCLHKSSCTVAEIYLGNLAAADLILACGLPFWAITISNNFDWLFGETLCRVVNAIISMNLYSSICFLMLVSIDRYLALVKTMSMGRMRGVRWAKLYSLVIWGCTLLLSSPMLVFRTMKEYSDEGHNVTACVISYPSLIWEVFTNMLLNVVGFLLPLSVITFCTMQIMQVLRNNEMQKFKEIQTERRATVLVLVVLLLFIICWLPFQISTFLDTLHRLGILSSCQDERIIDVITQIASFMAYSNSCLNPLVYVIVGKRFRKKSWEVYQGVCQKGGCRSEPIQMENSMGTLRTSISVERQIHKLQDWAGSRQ
Excerpt: The institutional research ethics board (CHU de Québec) approved the anonymous use of human umbilical cord segments obtained after elective cesarean section deliveries. Informed consent was obtained from mothers. […] Tissues were used only once and discarded; controls curves were obtained from other vascular rings from the same vein.
as §2

human B1R (B1R-FLAG) = molecular target: T3, human B1R (B1R-FLAG) (Homo sapiens, UniProt P46663); assay: [3H]Lys-des-Arg9-BK binding competition to B1R-FLAG transiently expressed in HEK 293a cells; conditions: for [3H]Lys-des-Arg9-BK binding to B1R-FLAG log(IC50) ± SE: log of IC50, 1 nM [3H]Lys-des-Arg9-BK, HEK 293a cells
T3 construct: FLAG; expressed in transfected cells
T3 sequence (P46663 1-353): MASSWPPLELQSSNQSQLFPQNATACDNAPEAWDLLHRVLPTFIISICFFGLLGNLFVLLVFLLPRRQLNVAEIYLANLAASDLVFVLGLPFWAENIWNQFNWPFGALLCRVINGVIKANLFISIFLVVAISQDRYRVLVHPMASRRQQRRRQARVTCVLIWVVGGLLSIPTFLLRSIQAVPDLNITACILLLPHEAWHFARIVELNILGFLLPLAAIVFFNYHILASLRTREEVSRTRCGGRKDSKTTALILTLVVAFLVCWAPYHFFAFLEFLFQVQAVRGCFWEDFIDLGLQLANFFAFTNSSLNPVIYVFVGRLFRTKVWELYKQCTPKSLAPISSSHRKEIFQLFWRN

human recombinant ACE = human recombinant ACE (Homo sapiens, UniProt P12821); assay: [3H]enalaprilat binding competition to recombinant ACE transiently expressed in HEK 293a cells; set-up: expressed in transfected cells; host or cells: HEK 293a cells, transient expression (peACE vector, gift from Prof. P. Corvol); conditions: for fold lesser affinity vs. BK for ACE: [3H]enalaprilat binding competition; for [3H]enalaprilat binding to ACE log(IC50) ± SE: log of IC50, 2 nM [3H]enalaprilat, HEK 293a cells
Sequence of human recombinant ACE (P12821 30-1306): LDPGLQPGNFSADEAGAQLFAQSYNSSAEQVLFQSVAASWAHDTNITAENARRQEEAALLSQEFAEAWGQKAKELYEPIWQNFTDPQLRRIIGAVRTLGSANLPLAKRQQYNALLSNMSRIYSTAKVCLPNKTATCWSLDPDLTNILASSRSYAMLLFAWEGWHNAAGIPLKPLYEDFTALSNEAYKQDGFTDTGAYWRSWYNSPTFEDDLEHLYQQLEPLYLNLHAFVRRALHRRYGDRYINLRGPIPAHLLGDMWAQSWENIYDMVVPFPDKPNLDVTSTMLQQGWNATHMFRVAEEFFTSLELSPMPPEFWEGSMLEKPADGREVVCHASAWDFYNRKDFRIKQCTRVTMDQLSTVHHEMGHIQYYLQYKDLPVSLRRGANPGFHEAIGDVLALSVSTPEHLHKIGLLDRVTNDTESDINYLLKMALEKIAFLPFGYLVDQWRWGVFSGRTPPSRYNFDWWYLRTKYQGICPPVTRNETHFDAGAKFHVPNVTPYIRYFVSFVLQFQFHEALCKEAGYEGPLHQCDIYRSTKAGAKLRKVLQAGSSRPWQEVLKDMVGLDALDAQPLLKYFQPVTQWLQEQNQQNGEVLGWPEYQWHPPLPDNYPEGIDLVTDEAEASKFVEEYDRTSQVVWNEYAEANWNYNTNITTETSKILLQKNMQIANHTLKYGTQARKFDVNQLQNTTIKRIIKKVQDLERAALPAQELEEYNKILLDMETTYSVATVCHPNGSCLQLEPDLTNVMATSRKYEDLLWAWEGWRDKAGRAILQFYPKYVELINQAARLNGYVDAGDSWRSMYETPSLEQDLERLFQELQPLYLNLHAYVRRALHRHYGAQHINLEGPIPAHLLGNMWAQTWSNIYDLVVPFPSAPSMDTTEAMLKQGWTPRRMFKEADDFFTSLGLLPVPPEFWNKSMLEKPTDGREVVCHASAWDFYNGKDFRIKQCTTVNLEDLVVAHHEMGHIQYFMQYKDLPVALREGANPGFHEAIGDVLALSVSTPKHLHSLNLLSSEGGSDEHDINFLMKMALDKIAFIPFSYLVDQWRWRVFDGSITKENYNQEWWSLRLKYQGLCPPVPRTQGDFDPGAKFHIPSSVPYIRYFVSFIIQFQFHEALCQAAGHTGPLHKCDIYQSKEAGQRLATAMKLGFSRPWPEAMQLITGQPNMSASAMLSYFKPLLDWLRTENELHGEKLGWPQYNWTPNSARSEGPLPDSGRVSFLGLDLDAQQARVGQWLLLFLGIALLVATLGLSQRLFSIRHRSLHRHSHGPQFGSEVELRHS
Procedure: as §1, §2

[3] = enalaprilat 1 μM, 30 min before agonist

SMILES | IC50 for B2R-GFP relative to unlabeled BK (fold greater IC50 / lower affinity) [1] [fold] | [3H]BK binding to B2R-GFP log(IC50) ± SE [1] | Control (DMSO vehicle) log(EC50) ± SE [2] | reduction of contractile potency by Plummer's inhibitor [2] | decrease of apparent contractile potency by ACE blockade [2] | [3H]Lys-des-Arg9-BK binding to B1R-FLAG log(IC50) ± SE (human B1R (B1R-FLAG)) | fold less potent than BK as contractile agent [2] [fold] | +Peptidase inhibitor log(EC50) ± SE [2, 3] | fold lesser affinity vs. BK for ACE (human recombinant ACE) [fold] | [3H]enalaprilat binding to ACE log(IC50) ± SE (human recombinant ACE) | other results
N=C(N)NCCC[C@H](NC(=O)[C@H](Cc1ccccc1)NC(=O)[C@@H]1CCCN1C(=O)[C@H](CO)NC(=O)[C@H](Cc1ccccc1)NC(=O)CNC(=O)[C@@H]1CCCN1C(=O)[C@@H]1CCCN1C(=O)[C@H](CCCNC(=N)N)NC(=O)[C@@H]1CCCN1C(=O)[C@@H](N)CCCNC(=N)N)C(=O)O [Arg-Pro-BK] (H-RPRPPGFSPFR-OH; N-terminus and C-terminus assumed) | 1.6 | -7.61 ± 0.09 | -7.39 ± 0.06 |  |  |  |  |  |  |  | effect of DPP-IV inhibitor NVP-DPP728 on apparent contractile potency (in words) ([2]; NVP-DPP728 1 μM): did not show a loss of apparent potency; effect of aminopeptidase inhibitor amastatin on contractile effect (in words) ([2]; amastatin 3 μM): failed to modify; +Peptidase inhibitor log(EC50) ± SE ([2]; NVP-DPP728 1 μM): -7.29 ± 0.03; +Peptidase inhibitor log(EC50) ± SE ([2]; amastatin 3 μM): -7.35 ± 0.07
N=C(N)NCCC[C@H](NC(=O)[C@H](Cc1ccccc1)NC(=O)[C@@H]1CCCN1C(=O)[C@H](CO)NC(=O)[C@H](Cc1ccccc1)NC(=O)CNC(=O)[C@@H]1CCCN1C(=O)[C@@H]1CCCN1C(=O)[C@@H](N)CCCNC(=N)N)C(=O)O [BK, Bradykinin, reference compound] (H-RPPGFSPFR-OH) |  |  |  | did not affect | not changed |  |  |  |  |  | 
NC(N)=NCCC[C@H](NC(=O)[C@H](Cc1ccccc1)NC(=O)[C@@H]1CCCN1C(=O)[C@H](CO)NC(=O)[C@H](Cc1ccccc1)NC(=O)CNC(=O)[C@@H]1CCCN1C(=O)[C@@H]1CCCN1C(=O)[C@@H](N)CCCN=C(N)N)C(=O)O [BK, Bradykinin, reference compound] (H-RPPGFSPFR-OH) |  |  |  |  |  |  |  |  |  |  | IC50 [1]: 15.8 nM; IC50 (human B1R (B1R-FLAG)): > 10000 nM; IC50 (human recombinant ACE): 1550 nM
C[C@H](NC(=O)[C@H](CCCNC(=N)N)NC(=O)[C@H](Cc1ccccc1)NC(=O)[C@@H]1CCCN1C(=O)[C@H](CO)NC(=O)[C@H](Cc1ccccc1)NC(=O)CNC(=O)[C@@H]1CCCN1C(=O)[C@@H]1CCCN1C(=O)[C@@H](N)CCCNC(=N)N)C(=O)N1CCC[C@H]1C(=O)O [BK-Ala-Pro] (H-RPPGFSPFRAP-OH; N-terminus and C-terminus assumed) |  | -5.11 ± 0.16 | -6.59 ± 0.07 |  |  | >-5 | 14.1 | -5.55 ± 0.06 | 2.23 | -5.46 ± 0.11 | 
N=C(N)NCCC[C@H](NC(=O)[C@H](CCCNC(=N)N)NC(=O)[C@H](Cc1ccccc1)NC(=O)[C@@H]1CCCN1C(=O)[C@H](CO)NC(=O)[C@H](Cc1ccccc1)NC(=O)CNC(=O)[C@@H]1CCCN1C(=O)[C@@H]1CCCN1C(=O)[C@@H](N)CCCNC(=N)N)C(=O)O [BK-Arg] (H-RPPGFSPFRR-OH; N-terminus and C-terminus assumed) | 29 | -6.34 ± 0.11 | -6.67 ± 0.08 | 15 fold |  | -5.12 ± 0.10 |  |  |  |  | IC50 (human B1R (B1R-FLAG); competition of [3H]Lys-des-Arg9-BK binding, read-out: IC50 for recombinant human B1R): 7600 nM; +Peptidase inhibitor log(EC50) ± SE ([2]; Plummer's inhibitor 1 μM): -5.49 ± 0.07
CC(C)C[C@H](NC(=O)[C@H](Cc1c[nH]cn1)NC(=O)[C@H](CCCNC(=N)N)NC(=O)[C@H](Cc1ccccc1)NC(=O)[C@@H]1CCCN1C(=O)[C@H](CO)NC(=O)[C@H](Cc1ccccc1)NC(=O)CNC(=O)[C@@H]1CCCN1C(=O)[C@@H]1CCCN1C(=O)[C@@H](N)CCCNC(=N)N)C(=O)O [BK-His-Leu] (H-RPPGFSPFRHL-OH; N-terminus and C-terminus assumed) | 363 | -5.24 ± 0.20 | -6.61 ± 0.11 |  | 18 fold and 18.3 fold | >-5 | 13.5 | -5.34 ± 0.06 | 3.33 | -5.28 ± 0.22 | 
